{
  "source": "patent US20230383320A1",
  "about": "“METHOD FOR PRODUCING MONOUNSATURATED FATTY ACID HAVING 16 CARBON ATOMS” (SHIZUOKA PREFECTURAL UNIVERSITY CORPORATION, priority 2022, published 2023)",
  "data": [
    {"test_system": "Staphylococcus epidermidis", "assay": "not given", "details": "reported in Non Patent Literature 1; cited from earlier work", "values": [
      {"compound": "CCCCCCCCC/C=C\\CCCCC(=O)O", "note": "[sapienic acid]", "antibacterial activity against Staphylococcus epidermidis": "not against Staphylococcus epidermidis"}
    ]},
    {"test_system": "Bifidobacterium sp. strain JCM7042", "assay": "Effect of components added to TOS liquid medium on bifidobacteria growth and 7-cis-C16:1 production", "assay_type": "cell-based", "details": "component added to TOS liquid medium, amount per liter (0.1 to 10 g); compared to control without the component; 37° C.", "values": [
      {"compound": "O=C([O-])[O-].[Ca+2]", "note": "[Calcium Carbonate]", "7-cis-C16:1 Production": "Fair", "Bifidobacteria Growth": "Excellent"},
      {"compound": "Cl.N[C@@H](CS)C(=O)O.O", "note": "[L-Cysteine Hydrochloride (1-hydrate)]", "7-cis-C16:1 Production": "Excellent", "Bifidobacteria Growth": "Excellent"},
      {"compound": "CCCCCCCCCCCC(=O)O", "note": "[Lauric Acid (free form), Lauric Acid]", "7-cis-C16:1 Production": "Poor", "Bifidobacteria Growth": "Poor"},
      {"compound": "CCCCCCCCCCCC(=O)OC", "note": "[Lauric Acid Methyl Ester]", "7-cis-C16:1 Production": "Good", "Bifidobacteria Growth": "Good"},
      {"compound": "CCCCCCCCCCCCCC(=O)O", "note": "[Myristic Acid (free form), Myristic Acid]", "7-cis-C16:1 Production": "Poor", "Bifidobacteria Growth": "Poor"},
      {"compound": "CCCCCCCCCCCCCC(=O)OC", "note": "[Myristic Acid Methyl Ester]", "7-cis-C16:1 Production": "Poor", "Bifidobacteria Growth": "Poor"},
      {"compound": "CCCCCCCC/C=C\\CCCCCCCC(=O)O", "note": "[Oleic Acid (free form), Oleic Acid]", "7-cis-C16:1 Production": "Poor", "Bifidobacteria Growth": "Fair"},
      {"compound": "CCCCCCCC/C=C\\CCCCCCCC(=O)OC", "note": "[Oleic Acid Methyl Ester]", "7-cis-C16:1 Production": "Good", "Bifidobacteria Growth": "Excellent"},
      {"compound": "O=C(O)CC(=O)C(=O)O", "note": "[Oxaloacetic Acid]", "7-cis-C16:1 Production": "Poor", "Bifidobacteria Growth": "Good"},
      {"compound": "CCCCCCCCCCCCCCCC(=O)O", "note": "[Palmitic Acid (free form), Palmitic Acid]", "7-cis-C16:1 Production": "Poor", "Bifidobacteria Growth": "Poor"},
      {"compound": "CCCCCCCCCCCCCCCC(=O)OC", "note": "[Palmitic Acid Methyl Ester]", "7-cis-C16:1 Production": "Poor", "Bifidobacteria Growth": "Poor"},
      {"compound": "O=C([O-])[O-].[K+].[K+]", "note": "[Potassium Carbonate]", "7-cis-C16:1 Production": "Poor", "Bifidobacteria Growth": "Poor"},
      {"compound": "O=C([O-])O.[K+]", "note": "[Potassium Hydrogen Carbonate]", "7-cis-C16:1 Production": "Fair", "Bifidobacteria Growth": "Poor"},
      {"compound": "O=C([O-])[O-].[Na+].[Na+]", "note": "[Sodium Carbonate]", "7-cis-C16:1 Production": "Poor", "Bifidobacteria Growth": "Poor"},
      {"compound": "O=C([O-])O.[Na+]", "note": "[Sodium Hydrogen Carbonate]", "7-cis-C16:1 Production": "Poor", "Bifidobacteria Growth": "Poor"},
      {"compound": "Anisidine", "7-cis-C16:1 Production": "Good", "Bifidobacteria Growth": "Good"},
      {"compound": "Polysorbate 80", "7-cis-C16:1 Production": "Poor", "Bifidobacteria Growth": "Good"},
      {"compound": "Tergitol NP40", "7-cis-C16:1 Production": "Good", "Bifidobacteria Growth": "Good"},
      {"compound": "Triton X-100", "7-cis-C16:1 Production": "Poor", "Bifidobacteria Growth": "Poor"}
    ]},
    {"test_system": "Staphylococcus aureus", "assay": "not given", "details": "reported in Non Patent Literature 1; cited from earlier work", "values": [
      {"compound": "CCCCCCCC/C=C\\CCCCCC(=O)O", "note": "[7-cis-hexadecenoic acid]", "selective antibacterial activity (S. aureus versus S. epidermidis)": "selective antibacterial activity similar to sapienic acid"},
      {"compound": "CCCCCC/C=C\\CCCCCCCC(=O)O", "note": "[palmitoleic acid]", "selective antibacterial activity (S. aureus versus S. epidermidis)": "selective antibacterial activity similar to sapienic acid"},
      {"compound": "CCCCCCCCC/C=C\\CCCCC(=O)O", "note": "[sapienic acid]", "antibacterial activity against Staphylococcus aureus": "strong antibacterial activity"}
    ]},
    {"test_system": "Staphylococcus aureus", "assay": "not given", "details": "7-cis-hexadecenoic acid itself; cited from earlier work", "values": [
      {"compound": "CCCCCCCC/C=C\\CCCCCC(=O)O", "note": "[7-cis-hexadecenoic acid]", "MIC against Staphylococcus aureus": "about 3 μg/mL"}
    ]},
    {"test_system": "Bifidobacterium sp. strain JCM7042", "assay": "L-cysteine concentration in MRS liquid medium, production of 7-cis-hexadecenoic acid", "assay_type": "cell-based", "details": "5.0 g/L in MRS liquid medium", "experimental": "MRS media with various amounts of L-cysteine added were prepared to investigate their effect on the production of 7-cis-hexadecenoic acid by bifidobacteria. Specifically, the test was performed as follows. Bifidobacterium sp. strain JCM7042 (strain JCM7042) was used as the Bifidobacterium. L-cysteine hydrochloride monohydrate was added at 0.001 g/L, 0.01 g/L, 0.1 g/L, 0.5 g/L, 1.0 g/L, and 5.0 g/L to the MRS liquid medium with the composition shown in Table 1 to prepare L-cysteine-containing MRS liquid media. These MRS liquid media with L-cysteine and the control MRS liquid medium (without added L-cysteine) were cultured in the same manner as in Example 1. Using the same methods and conditions as in Example 1, the 7-cis-hexadecenoic acid in each culture solution was quantified by gas chromatography (GC) analysis.", "values": [
      {"compound": "Cl.N[C@@H](CS)C(=O)O.O", "note": "[L-Cysteine Hydrochloride (1-hydrate)]", "production of 7-cis-hexadecenoic acid": "greatly inhibited"}
    ]}
  ]
}
